Data: patent US20050220800A1, “Cytokines and cytokine receptors with reduced immunogenicity” (priority 2002, published 2005)

Key:
human CD4+ T-cells [1] = assay: I-MUNE assay of IFN-β variant peptides; format: cell-based; details: for status on additional testing: FIG. 5
Method: A set of variant peptides was ordered based on the sequences of peptides #1 (SEQ ID NO:2), #27 (SEQ ID NO:28), and #40 (SEQ ID NO:41). An alanine scan was performed for each peptide. In addition, variant peptides were ordered that corresponded to the peptide sequences as described by Runkel et al., (Runkel et al., Biochem., 39:2538-2551 [2000]). These variant peptides were synthesized by Mimotopes (San Diego, Calif.) using the multi-pin synthesis technique known in the art (See e.g., Maeji et al., J. Immunol. Meth., 134:23-33 [1990]).
The I-IMUNE® assay was performed as described in Example 3, utilizing the variant peptides on a set of 103 donor samples. […] Epitope #40 returned a consistent donor response percent of 15%.

human CD4+ T-cells [2] = assay: I-MUNE assay of IFN-β 15mer peptides (T-cell proliferation); format: cell-based; details: percent of donors with proliferative response at least 2.95 times baseline; 87 donors; 5 μM peptide
Method: Fresh human peripheral blood cells were collected from 87 humans of unknown exposure status to IFN-β. These cells were tested to determine antigenic epitopes in IFN-β, as described in Example 3.
Peripheral mononuclear blood cells (stored at room temperature, no older than 24 hours) were prepared for use as follows: Approximately 30 mls of a solution of buffy coat preparation from one unit of whole blood was brought to 50 ml with Dulbecco's phosphate buffered solution (DPBS) and split into two tubes. The samples were underlaid with 12.5 ml of room temperature Lymphoprep density separation media (Nycomed; Pharma AS; Density 1.077 g/ml). The tubes were centrifuged for thirty minutes at 600×g. The interface of the two phases was collected, pooled and washed in DPBS. The cell density of the resultant solution was measured by hemocytometer, as known in the art. Viability was measured by trypan blue exclusion, as known in the art. […]
CD4+ T cells were prepared from frozen aliquots of the peripheral blood cell samples used to prepare the dendritic cells, using reagents provided by the Dynal CD4+ T-cell enrichment kit (Dynal). The resultant CD4+ cell solution was centrifuged, resuspended in AIMV media and the cell density was determined using methods known in the art. […]

human CD4+ T-cells [3] = assay: I-MUNE assay of soluble human TNF-R1 peptides; format: cell-based; details: FIG. 10
Method: Peptides for use in the I-MUNE® assay as described in Example 3 were prepared based on the sequence of the soluble human tumor necrosis factor receptor 1 (TNF-R1) (GenBank Accession No. P19438) with the sequence:
The background was determined to be 2.23 and the value for three standard deviations was 8.07. This epitope has the sequence CSLCLNGTVHLSCQE (SEQ ID NO:107). […] This variant was then reported to have a reduced immunogenic capacity when tested in a non-human primate (See, Rosenberg et al., J. Appl. Physiol., 91:2213-2223 [2001]). Thus, it is contemplated that modifications in this epitope will provide advantages in the development of sTNFR-1 for use in treatment.

human CD4+ T-cells [4] = assay: I-MUNE assay of human thrombopoietin peptides; format: cell-based
Method: Peptides for use in the I-MUNE® assay as described in Example 3 were prepared based on the sequence of the first 152 residues of human thrombopoietin (i.e., the active domain of TPO), as well as the entire TPO sequence, including the CHO binding domain (GenBank Accession No. P40225) with the sequence:
The I-MUNE® assay described in Example 3, was conducted using cells obtained from 99 donors. The background was determined to be 2.5, and the standard deviation was 9.2. FIG. 7 provides a graph showing the data obtained in the I-MUNE® assay with the first 152 residues of TPO (i.e., the active domain).
FIG. 8 provides a graph showing the results for the I-MUNE® assay conducted using the entire TPO molecule, including the CHO binding domain.
FIG. 9, Panels A and B provide graphs showing the results for TPO epitope #45, in which the critical residues were tested. The average parental residue response was 9.18±1.82. Values less that 3.5% were equivalent to 3 standard deviations under the averaged response of the parent peptides.

human CD4+ T-cells [5] = assay: I-MUNE assay of human erythropoietin peptides; format: cell-based; details: 59 donors; FIG. 11
Method: Peptides for use in the I-MUNE® assay as described in Example 3 were prepared based on the sequence of human erythropoietin (EPO), (GenBank Accession No. P1588), with the sequence:
The I-MUNE® assay described in Example 3, was conducted using cells obtained from 59 donors. FIG. 11 provides a graph showing the data obtained in the I-MUNE® assay with the pepset produced from the EPO sequence above (SEQ ID NO:108). […] Peptide #34 has the sequence SGLRSLTTLLRALGA (SEQ ID NO:109), and peptide #48 has the sequence FRVYSNFLRGKLKLY (SEQ ID NO:110). As active mutants have been made in the region represented by peptides #34 and #48 (See, Elliott et al., 89:493-502 [1997]), it is contemplated that amino acid modifications in or around these peptides will provide variant EPO suitable for use as an EPO substitute.

HLA-DR and -DQ antigens = assay: HLA association with response to epitope peptide #40; set-up: species or system human; details: for percent non-responsive / percent responsive / relative risk: 186 donors
Method: The HLA-DR and DQ expression of all the donors tested in both rounds of assay testing described above were assessed using a commercially available PCR-based HLA typing kit (Bio-Synthesis). The phenotypic frequencies of individual HLA-DR and -DQ antigens among responders and non-responders to peptide #40 were tested using a chi-squared analysis with 1 degree of freedom. The increased or decreased likelihood of reacting to epitope #40, the relative risk, was calculated wherever the HLA antigen in question was present in both responding and non-responding donor samples.
A total of 186 donors were completely HLA typed, and were included in the analysis for epitope peptide #40.
The magnitude of the proliferative response to peptide #40 in responders and non-responders expressing HLA-DQ6 was also analyzed. […] As a control, non-responders to the peptide returned the same level of proliferation the peptide regardless of their expression of HLA-DQ6.

Q: With “peptide #27: 15mer peptide of human IFN-β pepset, SEQ ID NO:28 (WNETIVENLLANVYR)” as the substance, how does the “status on additional testing” value (human CD4+ T-cells [1]) read?
A: non-statistically relevant

Q: With “peptide #1: 15mer peptide of human IFN-β pepset, SEQ ID NO:2 (MSYNLLGFLQRSSNF)” as the substance, how does the “status on additional testing” value (human CD4+ T-cells [1]) read?
A: non-statistically relevant

Q: And the percent response (human CD4+ T-cells [2])?
A: ≥ 9.51%

Q: For “CSLCLNGTVHLSCQE (listed as Homo sapiens) [SEQ ID NO:107]”, which epitope identification (human CD4+ T-cells [3]) is on record?
A: significant epitope

Q: What does the source list for “RAPPTTAVPSRTSLVLTL (listed as Homo sapiens) [peptide #45]”?
A: response (human CD4+ T-cells [4]; TPO epitope #45 critical residue testing, FIG. 9): 9.18±1.82%; epitope identification (human CD4+ T-cells [4]; entire TPO molecule, 99 donors, FIG. 8): epitope of interest

Q: For “FRVYSNFLRGKLKLY (listed as Homo sapiens) [peptide #48]”, which epitope identification (human CD4+ T-cells [5]) is on record?
A: Epitopes of interest

Q: What does the source list for “peptide #40: 15mer peptide of human IFN-β pepset, SEQ ID NO:41; identified CD4+ T-cell epitope (SSLHLKRYYGRILHY)”?
A: donor response percent (human CD4+ T-cells [1]; 103 donor samples): 15%; magnitude of the proliferative response in responders expressing HLA-DQ6 versus responders not expressing HLA-DQ6 (HLA-DR and -DQ antigens; FIG. 6, responder = stimulation index greater than 2.95): significantly higher; percent non-responsive (HLA-DR and -DQ antigens; HLA-DQ6): 25%; percent responsive (HLA-DR and -DQ antigens; HLA-DQ6): 61%; relative risk (HLA-DR and -DQ antigens; HLA-DQ6): 3.58; percent non-responsive (HLA-DR and -DQ antigens; HLA-DR1): 3%; percent responsive (HLA-DR and -DQ antigens; HLA-DR1): 17%; relative risk (HLA-DR and -DQ antigens; HLA-DR1): 0.19; percent non-responsive (HLA-DR and -DQ antigens; HLA-DR15): 15%; percent responsive (HLA-DR and -DQ antigens; HLA-DR15): 39%; relative risk (HLA-DR and -DQ antigens; HLA-DR15): 2.68; percent response (human CD4+ T-cells [2]): 18.18%

Q: For “SGLRSLTTLLRALGA (listed as Homo sapiens) [peptide #34]”, which epitope identification (human CD4+ T-cells [5]) is on record?
A: Epitopes of interest
